Values after ≈ are worked out from the molar mass of the structure shown.
Columns and labels:
physchem = settings: buffer, pH 7.4, logD
Description: (§1) Lipophilicity, log D of the compound at pH 7.4 by microscale shake flask method

[1] = target: Epidermal growth factor receptor (Homo sapiens, UniProt P00533, L858R/T790M)
Hepatocyte [2] = assay: Stability in human hepatocytes; type: ADME, cell-based
[3] = target: T1, Epidermal growth factor receptor (Homo sapiens, UniProt P00533)
Description: Inhibition of EGFR phosphorylation in human NCI-H292 cells preincubated for 1 hr followed by stimulation with EGF for 8 mins by electrochemiluminescent immunoassay

NCI-H1975 = assay: Antiproliferative activity against human NCI-H1975 cells expressing EGFR T790M/L858R double mutant after 72 hrs by luminescence assay; type: functional, cell-based; settings: NCI-H1975, 72 h
Rattus norvegicus [4] = assay: Unbound plasma clearance in rat at 5 mg/kg, iv; type: ADME, organism-based; settings: in vivo
Homo sapiens = species: Homo sapiens; assay: Selectivity ratio of Ki for human wild type EGFR to Ki for human EGFR T790M/L858R double mutant
[5] = target: T1, Epidermal growth factor receptor; remark: listed apart in the source
[6] = Plasma clearance in rat at 5 mg/kg, iv; type: ADME, organism-based
[7] = Kinetic solubility of compound in PBS at pH 7.4 at 100 uM after 24 hrs; type: physicochemical; settings: read-out: Kinetic_solubility
[8] = Apparent permeability from apical to basolateral side in MDCK cells; type: ADME, cell-based, Canis lupus familiaris; settings: dog
[9] = Oral bioavailability in rat at 10 mg/kg; type: ADME, organism-based; settings: in vivo
Rattus norvegicus [10] = assay: Unbound plasma clearance in rat at 1 mg/kg, iv; type: ADME, organism-based; settings: in vivo
[11] = Plasma clearance in rat at 1 mg/kg, iv; type: ADME, organism-based
[12] = Plasma clearance in rat at 0.5 mg/kg, iv; type: ADME, organism-based
[13] = Chemical stability under acidic conditions assessed as amide hydrolysis to acid form; type: physicochemical
Rattus norvegicus [14] = assay: Unbound plasma clearance in rat at 0.5 mg/kg, iv; type: ADME, organism-based; settings: in vivo
Liver microsome [15] = assay: Stability in human liver microsomes; type: ADME
[16] = buffer, pH 7.4
Description: as §1

[17] = Volume of distribution at steady state in rat; type: ADME, organism-based; settings: in vivo, read-out: Vdss
[18] = target: T2, Epidermal growth factor receptor (Homo sapiens, UniProt P00533, 746-750DEL/T790M); assay: Inhibition of EGFR T790M/del (746 to 750) deletion mutant phosphorylation in erlotinib-resistant human PC9 cells preincubated for 1 hr followed by stimulation with EGF for 8 mins by electrochemiluminescent immunoassay; type: cell-based, PC-9
[19] = Half life in rat; type: ADME, organism-based; settings: in vivo
[20] = Oral bioavailability in rat; type: ADME, organism-based; settings: in vivo
NCI-H292 = assay: Antiproliferative activity against human NCI-H292 cells expressing wild type EGFR after 72 hrs by luminescence assay; type: functional, cell-based; settings: NCI-H292, 72 h
[21] = target: T2, Epidermal growth factor receptor; assay: Inhibition of human EGFR T790M/del (746 to 750) deletion mutant using Fl-EEPLYWSFPAKKK-CONH2 as substrate preincubated for 30 mins followed by addition of substrate measured after 30 mins by Morrison plot analysis; type: protein assay; settings: read-out: Ki(app)
Liver microsome [22] = assay: Drug metabolism in rat liver microsomes assessed as cis-3-Fluoro-1-{4-[2-((R)-1-hydroxyethyl)-1-((S)-2,2,2-trifluoro-1-methylethyl)-1Himidazo[4,5-c]pyridin-6-ylamino]pyrimidin-2-yl}piperidin-4-ol; type: ADME
[23] = Antiproliferative activity against erlotinib-resistant human PC9 cells expressing EGFR with ex19del and T790M mutations after 72 hrs by luminescence assay; type: functional, cell-based; settings: PC-9, 72 h
Hepatocyte [24] = assay: Drug metabolism in rat hepatocytes assessed as cis-3-Fluoro-1-{4-[2-((R)-1-hydroxyethyl)-1-((S)-2,2,2-trifluoro-1-methylethyl)-1Himidazo[4,5-c]pyridin-6-ylamino]pyrimidin-2-yl}piperidin-4-ol; type: ADME, cell-based

T1 sequence (P00533 whole entry): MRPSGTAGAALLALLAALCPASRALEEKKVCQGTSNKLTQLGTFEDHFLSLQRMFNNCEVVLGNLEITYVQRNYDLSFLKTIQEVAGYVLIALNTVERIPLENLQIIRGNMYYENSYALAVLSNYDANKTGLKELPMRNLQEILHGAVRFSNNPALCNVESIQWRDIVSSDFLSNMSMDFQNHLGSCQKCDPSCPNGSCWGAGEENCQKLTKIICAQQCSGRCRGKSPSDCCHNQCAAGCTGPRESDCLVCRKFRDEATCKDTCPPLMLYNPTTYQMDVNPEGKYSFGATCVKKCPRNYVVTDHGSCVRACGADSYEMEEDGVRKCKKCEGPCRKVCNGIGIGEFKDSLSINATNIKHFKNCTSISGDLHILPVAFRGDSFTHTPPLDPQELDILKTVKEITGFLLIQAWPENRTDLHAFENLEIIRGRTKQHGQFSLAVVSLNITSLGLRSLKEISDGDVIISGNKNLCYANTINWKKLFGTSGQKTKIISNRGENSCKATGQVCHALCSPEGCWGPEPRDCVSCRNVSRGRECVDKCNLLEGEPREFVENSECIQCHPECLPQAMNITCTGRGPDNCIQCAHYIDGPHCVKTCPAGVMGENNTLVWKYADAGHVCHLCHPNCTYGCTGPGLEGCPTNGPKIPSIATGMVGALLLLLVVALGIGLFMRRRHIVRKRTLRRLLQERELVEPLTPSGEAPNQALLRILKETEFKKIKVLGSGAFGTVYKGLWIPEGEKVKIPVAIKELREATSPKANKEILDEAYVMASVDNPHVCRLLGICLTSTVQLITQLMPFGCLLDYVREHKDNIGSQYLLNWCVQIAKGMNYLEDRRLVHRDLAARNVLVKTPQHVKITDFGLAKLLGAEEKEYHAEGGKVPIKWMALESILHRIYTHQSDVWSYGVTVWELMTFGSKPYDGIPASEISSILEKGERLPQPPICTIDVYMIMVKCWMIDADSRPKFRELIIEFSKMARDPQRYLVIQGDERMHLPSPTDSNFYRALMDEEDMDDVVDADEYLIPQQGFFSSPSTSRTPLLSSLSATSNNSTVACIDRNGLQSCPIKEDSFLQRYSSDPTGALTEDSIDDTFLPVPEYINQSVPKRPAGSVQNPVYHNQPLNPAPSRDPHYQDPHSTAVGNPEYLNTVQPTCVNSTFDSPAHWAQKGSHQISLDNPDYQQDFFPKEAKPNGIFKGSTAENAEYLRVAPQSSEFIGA
Chain of Epidermal growth factor receptor (Homo sapiens, UniProt P00533, L858R/T790M) (P00533 25-1210 T790M/L858R limits assumed): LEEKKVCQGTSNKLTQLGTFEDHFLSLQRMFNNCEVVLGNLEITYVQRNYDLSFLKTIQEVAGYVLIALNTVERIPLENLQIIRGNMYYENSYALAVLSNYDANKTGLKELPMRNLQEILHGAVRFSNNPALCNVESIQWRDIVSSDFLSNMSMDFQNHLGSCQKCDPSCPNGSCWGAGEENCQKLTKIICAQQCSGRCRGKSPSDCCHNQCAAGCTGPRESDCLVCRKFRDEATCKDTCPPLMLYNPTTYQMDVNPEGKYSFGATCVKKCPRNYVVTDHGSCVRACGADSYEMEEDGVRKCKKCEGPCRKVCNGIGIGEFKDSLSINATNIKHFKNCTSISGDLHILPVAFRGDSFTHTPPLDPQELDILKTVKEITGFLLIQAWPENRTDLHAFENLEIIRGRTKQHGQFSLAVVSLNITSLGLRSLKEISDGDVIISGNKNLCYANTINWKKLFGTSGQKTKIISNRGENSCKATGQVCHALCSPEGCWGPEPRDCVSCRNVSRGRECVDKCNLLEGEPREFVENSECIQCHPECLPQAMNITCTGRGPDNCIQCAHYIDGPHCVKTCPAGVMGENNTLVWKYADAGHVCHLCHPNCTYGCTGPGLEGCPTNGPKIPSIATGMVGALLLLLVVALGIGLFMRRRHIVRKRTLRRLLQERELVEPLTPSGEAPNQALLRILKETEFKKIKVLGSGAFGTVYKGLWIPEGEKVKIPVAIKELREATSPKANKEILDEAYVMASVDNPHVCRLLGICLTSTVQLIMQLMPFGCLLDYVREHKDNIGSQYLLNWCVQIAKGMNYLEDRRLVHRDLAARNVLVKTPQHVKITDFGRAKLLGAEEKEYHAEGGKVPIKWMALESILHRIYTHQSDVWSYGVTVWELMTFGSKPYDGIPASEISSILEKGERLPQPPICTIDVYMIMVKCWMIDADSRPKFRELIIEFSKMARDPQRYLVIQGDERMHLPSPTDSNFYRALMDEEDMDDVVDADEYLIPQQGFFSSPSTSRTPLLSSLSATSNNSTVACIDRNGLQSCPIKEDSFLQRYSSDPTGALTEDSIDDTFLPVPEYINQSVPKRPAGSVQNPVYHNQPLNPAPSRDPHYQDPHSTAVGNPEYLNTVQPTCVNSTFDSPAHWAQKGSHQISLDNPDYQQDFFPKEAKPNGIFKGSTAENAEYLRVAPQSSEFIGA
T2 sequence (P00533 whole entry, looked up, stated change not applied): as the sequence (P00533 whole entry) above

Row | Compound | logD (physchem) | Ki [1] | Ki [5] | further results
1 | COC1CCN(c2nccc(Nc3cc4c(cn3)ncn4C3CC3)n2)CC1 | 2.3 | 87 nM | – | –
2 | COC1CCN(c2nccc(Nc3cc4c(cn3)ncn4C3CCOCC3)n2)CC1 | 2.1 | 76 nM | – | –
3 | COC1CCN(c2nccc(Nc3cc4c(cn3)nc(C)n4C(C)C)n2)CC1 | 2.4 | 19 nM | 875 nM | Stability (Hepatocyte [2]): Stable; IC50 [3]: > 10000 nM; EC50 (NCI-H1975): 6700 nM; CL free (Rattus norvegicus [4]): 620 mL/min/kg; Ratio Ki (Homo sapiens): 46; clearance [6]: 40 mL/min/kg; solubility kinetic at 24 h, 100 µM [7]: 87 µM (≈ 33.2 µg/mL); Papp A→B [8]: 29 ×10⁻⁶ cm/s; bioavailability [9]: 30%
4 | CO[C@H]1CCN(c2nccc(Nc3cc4c(cn3)nc(CO)n4C(C)C)n2)C[C@H]1F (racemic) | – | 4.3 nM | 150 nM | IC50 [3]: > 10000 nM; CL free (Rattus norvegicus [10]): 584 mL/min/kg; EC50 (NCI-H1975): 880 nM; clearance [11]: 107 mL/min/kg
5 | COC1CCN(c2nccc(Nc3cc4c(cn3)ncn4C3CCC3)n2)CC1 | 2.8 | 48 nM | – | –
6 | COC1CCN(c2nccc(Nc3cc4c(cn3)ncn4C3CCOC3)n2)CC1 (racemic) | 1.8 | 149 nM | – | –
7 | Cc1nc2cnc(Nc3ccnc(NCC(C)(C)C(N)=O)n3)cc2n1C(C)C | 1.5 | 22 nM | 390 nM | clearance [12]: 250 mL/min/kg; Stability [13]: Unstable; CL free (Rattus norvegicus [14]): 909 mL/min/kg
8 | CCC(C)n1cnc2cnc(Nc3ccnc(N4CCC(OC)CC4)n3)cc21 (racemic; form 3) | – | 22 nM | – | –
9 | COC1CCN(c2nccc(Nc3cc4c(cn3)ncn4C3CCCC3)n2)CC1 | 2.9 | – | – | –
10 | Cc1nc2cnc(Nc3ccnc(N4CC[C@H](O)[C@H](F)C4)n3)cc2n1C(C)C (racemic) | 1.5 | 13 nM | 910 nM | EC50 (NCI-H1975): 1600 nM; CL free (Rattus norvegicus [4]): 545 mL/min/kg; clearance [6]: 90 mL/min/kg
11 | COC1CCN(c2nccc(Nc3cc4c(cn3)nc(CO)n4C(C)C)n2)CC1 | 2.3 | 19 nM | 400 nM | EC50 (NCI-H1975): 6500 nM
12 | CO[C@H]1CCN(c2nccc(Nc3cc4c(cn3)nc(CO)n4C(C)C)n2)CC1(F)F (racemic) | 2.8 | – | – | EC50 (NCI-H1975): 2380 nM
13 | Cc1nc2cnc(Nc3ccnc(N4CCC(S(C)(=O)=O)CC4)n3)cc2n1C(C)C | 1.6 | 64 nM | – | clearance [12]: 165 mL/min/kg; Stability (Hepatocyte [2]): Stable; CL free (Rattus norvegicus [14]): 934 mL/min/kg; Stability (Liver microsome [15]): Stable
14 | CCC(C)n1cnc2cnc(Nc3ccnc(N4CCC(OC)CC4)n3)cc21 (racemic; form 2) | – | 17 nM | – | logD [16]: 2.9
15 | CO[C@H]1CCN(c2nccc(Nc3cc4c(cn3)nc(C)n4C(C)C)n2)C[C@@H]1F (racemic) | 2.5 | 44 nM | 1840 nM | –
16 | COC1(CN(C)C)CCN(c2nccc(Nc3cc4c(cn3)nc(C)n4C(C)C)n2)CC1 | 1.5 | 492 nM | – | –
17 | CO[C@H]1CCN(c2nccc(Nc3cc4c(cn3)nc(CO)n4C(C)C)n2)C[C@@H]1F (racemic) | – | 57 nM | 540 nM | –
18 | COC1(CCO)CCN(c2nccc(Nc3cc4c(cn3)nc(C)n4C(C)C)n2)CC1 | 2 | 50 nM | – | –
19 | CC(C)n1c(CO)nc2cnc(Nc3ccnc(N4CC[C@H](O)[C@H](F)C4)n3)cc21 (racemic) | 1.6 | 16 nM | > 0.53 nM | clearance [12]: 151 mL/min/kg; IC50 [3]: > 10000 nM; CL free (Rattus norvegicus [14]): 382 mL/min/kg; EC50 (NCI-H1975): > 10000 nM
20 | Cc1nc2cnc(Nc3ccnc(N4CCC(O)CC4)n3)cc2n1C(C)C | 1.8 | 34 nM | – | Stability (Hepatocyte [2]): Unstable

Row | Compound | logD (physchem) | Ki [1] | Ki [5] | further results
21 | CCn1cnc2cnc(Nc3ccnc(N4CCC(OC)CC4)n3)cc21 | 2.4 | 201 nM | – | –
22 | COC1CCN(c2nccc(Nc3cc4c(cn3)ncn4C3CCCCC3)n2)CC1 | 3.4 | 18 nM | – | –
23 | CO[C@H]1CCN(c2nccc(Nc3cc4c(cn3)nc([C@@H](C)O)n4[C@H](C)C(F)(F)F)n2)C[C@H]1F | 2.2 | 1.1 nM | 122 nM | IC50 [3]: > 10000 nM; Vd [17]: 3.7 L/kg; IC50 [18]: 27 nM; EC50 (NCI-H1975): 112 nM; half-life [19]: 1.7 h; CL free (Rattus norvegicus [4]): 334 mL/min/kg; bioavailability [20]: 85%; EC50 (NCI-H292): 7800 nM; Ki [21]: 7 nM; clearance [6]: 23 mL/min/kg; Drug metabolism (Liver microsome [22]): metabolite_detected; EC50 [23]: 90 nM; Drug metabolism (Hepatocyte [24]): metabolite_detected
24 | CCC(C)n1cnc2cnc(Nc3ccnc(N4CCC(OC)CC4)n3)cc21 (racemic; form 1) | 2.8 | 14 nM | – | –
25 | Cc1nc2cnc(Nc3ccnc(OCC(C)(C)S(C)(=O)=O)n3)cc2n1C(C)C | 1.6 | 52 nM | 2100 nM | clearance [12]: 53 mL/min/kg; Stability (Hepatocyte [2]): Stable; CL free (Rattus norvegicus [14]): 156 mL/min/kg; Stability (Liver microsome [15]): Stable
26 | CC(C)n1cnc2cnc(Nc3ccnc(N4CCC(C(N)=O)CC4)n3)cc21 | 1.7 | 151 nM | – | –
27 | Cc1nc2cnc(Nc3ccnc(N4CC[C@H](O)C(F)(F)C4)n3)cc2n1C(C)C (racemic) | 2.6 | 9.5 nM | > 403 nM | IC50 [3]: > 10000 nM; EC50 (NCI-H1975): 1700 nM
28 | COCC1(OC)CCN(c2nccc(Nc3cc4c(cn3)nc(C)n4C(C)C)n2)CC1 | 2.4 | 77 nM | – | –
29 | Cc1nc2cnc(Nc3ccnc(SCC(C)(C)C(N)=O)n3)cc2n1C(C)C | 1.9 | 658 nM | > 2500 nM | –
30 | COC1(CO)CCN(c2nccc(Nc3cc4c(cn3)nc(C)n4C(C)C)n2)CC1 | 1.7 | 24 nM | – | Stability (Liver microsome [15]): Stable
31 | Cc1nc2cnc(Nc3ccnc(/C=C/C(C)(C)O)n3)cc2n1C(C)C | 2 | – | > 2500 nM | clearance [12]: 50 mL/min/kg; CL free (Rattus norvegicus [14]): 200 mL/min/kg
32 | CO[C@H]1CCN(c2nccc(Nc3cc4c(cn3)nc(C)n4C(C)C)n2)C[C@H]1F (racemic) | 2.3 | 2.7 nM | 1080 nM | IC50 [3]: > 10000 nM; EC50 (NCI-H1975): 560 nM
33 | Cc1nc2cnc(Nc3ccnc(/C=C/C(C)(C)C(N)=O)n3)cc2n1C(C)C | 2.2 | 196 nM | > 1500 nM | Stability (Hepatocyte [2]): Stable; Stability (Liver microsome [15]): Stable
34 | Cc1nc2cnc(Nc3ccnc(NCC(C)(C)S(C)(=O)=O)n3)cc2n1C(C)C | 1.4 | – | 1820 nM | Stability (Hepatocyte [2]): Stable; CL free (Rattus norvegicus [10]): 707 mL/min/kg; clearance [11]: 158 mL/min/kg; Stability (Liver microsome [15]): Stable
35 | COC1CCN(c2nccc(Nc3cc4c(cn3)ncn4CC(F)(F)F)n2)CC1 | 2.8 | 71 nM | – | –
36 | COC1CCN(c2nccc(Nc3cc4[nH]cnc4cn3)n2)CC1 | 1.9 | – | 1200 nM | EC50 (NCI-H1975): 7000 nM
37 | COC1(CCN)CCN(c2nccc(Nc3cc4c(cn3)nc(C)n4C(C)C)n2)CC1 | 0.1 | – | – | Stability (Liver microsome [15]): Stable
38 | COC1CCN(c2nccc(Nc3cc4c(cn3)ncn4C(C)C(F)(F)F)n2)CC1 (racemic) | 2.7 | 27 nM | – | –
39 | Cc1nc2cnc(Nc3ccnc(N4CCC(C)(C(N)=O)C4)n3)cc2n1C(C)C (stereo unspecified) | 1.6 | 124 nM | 681 nM | Stability (Hepatocyte [2]): Stable; Stability (Liver microsome [15]): Stable

Source: ChEMBL document CHEMBL3734664, “Noncovalent Mutant Selective Epidermal Growth Factor Receptor Inhibitors: A Lead Optimization Case Study” (J Med Chem, 2015)
